Tested on: C57BL/6J mice
Assay: Sub-therapeutic antibiotic treatment (STAT) in drinking water, body composition versus Control drinking water
Assay type: in vivo
Settings: STAT penicillin versus Control drinking water
From the text: C57BL/6J (Jackson Labs, Bar Harbor Me.) mice either received no antibiotics (control) or continuous subtherapeutic antibiotic treatment (STAT) with penicillin in their drinking water. Mice were weaned at 4 weeks onto normal chow (13.2% fat, 5053 PicoLab Rodent Diet 20, LabDiet, Brentwood, Mo.) then changed to a high fat diet (45% kcal from fat, D12451, Research Diets, New Brunswick, N.J.) at 6 weeks of life. At 18 weeks of age, the three animals with weight at or closest to the median were selected as cecal content donors from each group (Control, n=7; STAT, n=8). Donor mice were humanely euthanized, and the proximal ⅓ of the cecum was aseptically removed and immediately (less than 1 minute) placed in reduced (no oxygen), sterile liquid dental transport media (Anaerobe Systems, Morgan Hill Calif.). The cecal samples in anaerobic transport media were brought into an anaerobic chamber within an hour of collection (Sheldon, Cornelius Oreg.). The three cecal samples from each group (STAT or Control) were pooled, and reduced, sterile saline was added to a final volume of 8 mL, of which 3 mL was used for microbiota transfer. To maintain viability of anaerobic organisms, vials containing the inoculum were not opened. […]
Mice were fed normal chow, then switched to high fat diet at 6 weeks of age. […] Microbiota recipient mice were given a high fat diet and monitored for 5 weeks. […]

**Q.** For penicillin, which Body composition is on record?
**A.** changes in body composition
